Values joined by “and” are separate entries in the source; they are usually repeats but may differ in a detail not shown here. Equal values may be shown once.
Key:
TLR5 = TLR5 (Mus musculus, UniProt Q9JLF7); experiment: TLR multiplex sensor, EIS film resistance before/after exposure (Example 5), TLR5 sensor; format: binding; conditions: exposure 20 minutes
Experimental: For each multiplex TLR sensor, 5 separate gold electrodes were used for binding TLR 1 to 5. The 5 modified electrodes/sensors were exposed to the analyte solution and evaluated one by one using potentiostats and electrochemical cells.
The preparation of each TLR biosensor was evaluated using EIS. It is understood that cyclic voltammetry as well as electrochemical impedance microscopy can also be used for monitoring the modification. […] Ethanolamine was then applied to deactivate unreacted LPA. Due to dissociation of unspecific absorbed TLR, the Rct dropped slightly. Experimental curves were evaluated using a model to obtain the Rct values, which can be seen at FIG. 9. Measurements from at least triplicated samples prepared were used to obtain statistic information.
The TLR1 sensor was exposed to an E. coli K12 whole-cell buffer solution for 20 minutes. The sensor was then removed, washed thoroughly and characterized in the electrochemical cell measuring the Rct again. The difference in Rct before and after exposure is the response triggered by the target. The same protocol was carried out for all remaining TLRs (TLRs 2-5) to obtain one set of pattern for E. coli K12 (FIGS. 10b to 10e). Multiple sets were investigated for statistical relevance. […]

rmTLR1 = molecular target: T1, rmTLR1 (Mus musculus, UniProt Q9EPQ1); experiment: Label-free TLR1 sensor, EIS detection of Pam3CSK4 (Example 7); format: binding; conditions: for delta Rct %: 20 minutes; for Rct: before immersion 10250
T1 construct: purchased R&D Systems RDS1476TR050
T1 sequence (Q9EPQ1 26-795): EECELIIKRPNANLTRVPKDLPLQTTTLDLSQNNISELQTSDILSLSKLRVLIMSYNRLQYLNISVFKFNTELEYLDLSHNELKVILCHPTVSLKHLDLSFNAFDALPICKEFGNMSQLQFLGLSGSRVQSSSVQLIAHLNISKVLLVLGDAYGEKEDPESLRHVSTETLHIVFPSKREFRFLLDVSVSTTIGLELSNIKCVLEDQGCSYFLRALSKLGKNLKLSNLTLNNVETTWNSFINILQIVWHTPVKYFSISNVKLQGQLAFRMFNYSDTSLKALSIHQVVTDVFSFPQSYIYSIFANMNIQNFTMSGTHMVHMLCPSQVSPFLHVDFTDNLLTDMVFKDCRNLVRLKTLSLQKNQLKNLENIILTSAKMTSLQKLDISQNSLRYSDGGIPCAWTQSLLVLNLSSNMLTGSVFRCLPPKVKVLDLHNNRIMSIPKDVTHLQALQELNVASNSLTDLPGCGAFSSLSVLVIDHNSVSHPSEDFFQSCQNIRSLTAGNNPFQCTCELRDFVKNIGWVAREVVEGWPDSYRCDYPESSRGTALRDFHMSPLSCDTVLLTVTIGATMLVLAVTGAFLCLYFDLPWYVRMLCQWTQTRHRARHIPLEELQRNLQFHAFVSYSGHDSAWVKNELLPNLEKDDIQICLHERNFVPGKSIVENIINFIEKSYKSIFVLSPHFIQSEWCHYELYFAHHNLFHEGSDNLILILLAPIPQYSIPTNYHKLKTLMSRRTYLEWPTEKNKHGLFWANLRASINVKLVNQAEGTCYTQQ
Experimental: (§1) TLR sensors were prepared using fresh, cleaned gold electrodes. The electrodes were immersed in a 2 mM 1-lipoic acid n-hydroxysuccinimide ester (LPA) ethanol solution for 48 hours at 277 K. The electrodes were then rinsed thoroughly using absolute ethanol and blown dry under nitrogen before incubation in 200 μg/ml rmTLR1, 200 μg/ml rmTLR2 and 200 μg/ml ‘rmTLR1 and 2’ mixture for 72 hours at 277 K. The rmTLR1 and 2 mixture was prepared by mixing 200 μg/ml rmTLR1 and 200 μg/ml rmTLR2 with a volume ratio of 1:1. The final concentration of each component was 100 μg/ml and the total concentration of the combined TLR protein content was 200 μg/ml. Following the supplier's recommended conditions, all TLRs were prepared in PBS buffer (pH˜7.4). The electrodes were rinsed with an excess volume of Milli-Q water and blown dry under nitrogen. An ethanolamine-tris buffer solution was prepared by dissolving 1.2 g of ethanolamine and 0.121 g of Tris base in 20 mL of water, the pH was adjusted to 8.4 using hydrochloric acid. TLR-immobilized electrodes were incubated in the ethanolamine solution for one hour at room temperature in order to block any remaining unreacted LPA amine sites. The fabricated sensors with immobilized, standalone rmTLR3, rmTLR4/MD-2 and rmTLR5, used for the selectivity test, were prepared using the same protocol described above.
(§2) Pam3CSK4 was dissolved in 10 mM HEPES aqueous buffer at pH˜7.4. The blocked rmTLR biosensors were incubated in Pam3CSK4 at various concentrations for 20 minutes. The electrodes were always washed thoroughly with same HEPES buffer (pH˜7.4) after the incubation.
(§3) All electrochemical measurements were carried out using a cell with a three-electrode configuration in an enclosed Faraday cage. CV and EIS measurements were completed using a CHI-660b potentiostat (CH Instruments, Austin, Tex.). rmTLR-modified gold electrodes and platinum (Pt) wire were used as the working electrode and the counter electrode, respectively. A reference electrode (Ag/AgCl/3.0M KCl) and a salt bridge, filled with an agar and 1M KNO3 aqueous solution, were inserted to minimize the diffusion of chloride ions into the electrolyte solution. The agar solution was prepared by dissolving 2.0 grams of agar and 10.1 g KNOB in 100 mL of water. The CV and EIS electrolyte was made in a 10 mM HEPES aqueous buffer at pH˜7.4, which consisted of a 5 mM K4Fe(CN)6/5 mM K3Fe(CN)6 as a redox couple with 1M of NaClO4 as the supporting electrolyte. For consistency, the electrochemical measurements were carried out with open-circuit potentials. EIS experiments were conducted in the frequency range of 100,000 to 0.1 Hz with an amplitude of 5 mV. The experimental EIS curves were evaluated to determine the film resistance using ZSimpWin 2.0 software.

rmTLR2 = experiment: Label-free TLR2 sensor, EIS detection of Pam3CSK4 (Example 7); format: binding, mouse; conditions: for delta Rct %: 20 minutes; for Rct: before immersion 7784
Experimental: as §1, §2, §3

Chain of TLR5 (Q9JLF7 27-859): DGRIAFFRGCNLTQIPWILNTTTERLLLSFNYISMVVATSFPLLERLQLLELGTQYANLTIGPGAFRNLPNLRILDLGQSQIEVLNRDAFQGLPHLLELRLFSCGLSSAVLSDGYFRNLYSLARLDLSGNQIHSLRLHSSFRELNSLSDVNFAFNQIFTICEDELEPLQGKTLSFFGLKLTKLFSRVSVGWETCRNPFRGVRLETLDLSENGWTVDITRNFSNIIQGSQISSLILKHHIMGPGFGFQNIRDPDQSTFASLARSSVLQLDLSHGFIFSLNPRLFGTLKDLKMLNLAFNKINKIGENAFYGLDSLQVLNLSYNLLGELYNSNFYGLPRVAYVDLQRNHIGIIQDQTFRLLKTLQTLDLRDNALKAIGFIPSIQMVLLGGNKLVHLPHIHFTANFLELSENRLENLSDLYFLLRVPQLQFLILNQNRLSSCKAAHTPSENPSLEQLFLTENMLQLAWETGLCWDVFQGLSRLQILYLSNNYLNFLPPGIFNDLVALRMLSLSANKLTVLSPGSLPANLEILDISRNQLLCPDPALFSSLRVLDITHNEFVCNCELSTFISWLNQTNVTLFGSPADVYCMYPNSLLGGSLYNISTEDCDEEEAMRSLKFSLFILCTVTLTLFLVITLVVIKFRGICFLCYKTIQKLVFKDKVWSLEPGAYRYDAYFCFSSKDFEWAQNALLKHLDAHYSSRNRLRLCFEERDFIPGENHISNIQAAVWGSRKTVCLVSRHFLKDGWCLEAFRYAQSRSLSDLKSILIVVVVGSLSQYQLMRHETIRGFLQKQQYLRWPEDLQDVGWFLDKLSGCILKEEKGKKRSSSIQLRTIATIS

Pam3CSK4 was tested, and the “delta Rct %” value (TLR5) was “limited responses”, the limit of detection (rmTLR1) was 10 µM and the “delta Rct %” value (rmTLR1; 5 μM) was “not significant”. The “delta Rct %” value (rmTLR1; 25 μM) was 59±7%, the “delta Rct %” value (rmTLR1; 50 μM) was 98±10% and the Rct (rmTLR1; after 5 μM) was 10780 Ω · cm^2. The Rct (rmTLR1; after 10 μM) was 12760 Ω · cm^2, the Rct (rmTLR1; after 25 μM) was 16840 Ω · cm^2 and the Rct (rmTLR1; after 50 μM) was 21010 Ω · cm^2. For the same substance, the limit of detection (rmTLR2) was 10 µM, the “delta Rct %” value (rmTLR2; 5 μM) was “not significant” and the “delta Rct %” value (rmTLR2; 10 μM) was 32±6% and ~30%. The “delta Rct %” value (rmTLR2; 25 μM) was 42±18%, the “delta Rct %” value (rmTLR2; 50 μM) was 80±32% and the Rct (rmTLR2; after 5 μM) was 7355 Ω · cm^2. The Rct (rmTLR2; after 10 μM) was 9446 Ω · cm^2, the Rct (rmTLR2; after 25 μM) was 12770 Ω · cm^2 and the Rct (rmTLR2; after 50 μM) was 17610 Ω · cm^2.
